From patent publication US8278306B2 (Vertex Pharmaceuticals Incorporated, priority 2006, dated 2012)

Columns and labels:
CYP2D6 = CYP2D6 (Homo sapiens, UniProt P10635); assay: Cytochrome P450 isozyme inhibition, fluorescent Vivid substrate; format: in vitro ADME; details: 20 nM CYP2D6, 10 μM Vivid 2D6 Blue, 60 minutes
Method: (§1) Selected compounds of the invention were assayed for their ability to inhibit various cytochrome P450 isozymes, such as, for example CYP2D6, CYP2C9, CYP1A2, CYP2C19, CYP3A4, CYP2C9, and CYP3A4 (human liver microsome). Such assays are described by Crespi et al., Anal. Biochem. 248:188-90, 1997; Ekins et al., J. Pharmacol. Exp. Ther. 290, 429-38, 1999; and Ekins et al., J. Pharmacol. Exp. Ther. 291, 424-33, 1999. In a typical isozyme inhibition experiment, test compounds are placed into a microwell on a microtiter plate as an 8 nL solution (2 mM in 75% DMSO/water). The plate is centrifuged for 2 minutes at approximately 1000 rpm to shift the compound to the bottom of the well. Polyvinylpyrrolidone (PVP/10K, 100 nL, 0.2% in 75% DMSO/water) is added to the well and this excipient also centrifuged for 2 minutes at approximately 1000 rpm to ensure mixing with the compound. The plates containing the wells are dried in vacuo. Distilled water (800 nL) is added to the wells containing compound, the background control wells, and the positive control wells, followed by the addition of 200 nL of phosphate buffer (500 mM potassium phosphate butter at pH=8.4). The positive control cells contain a drug such as, for example, miconazole. Insect baculosomes (PanVera P2315) in […] phosphate buffer was added to the background control wells and the plate was scanned for compound fluorescence. […] Therefore, CYP450 isozyme (400 nL) and recycling buffer (3.3 mM glucose-6-phosphate, 0.4 units/mL glucose-6-phosphate dehydrogenase, 100 mM MgCl2, and 0.00025% Antifoam 289) in 100 mM phosphate buffer was added to each well containing compound and background control to obtain the following concentrations: 5 nM CYP3A4, 10 nM CYP2C9, 5 nM CYP1A2, 5 nM CYP2C19, and 20 nM CYP2D6. After incubation for 60 minutes, the wells were read with a fluorescent plate reader.

CYP2C9 = CYP2C9 (Homo sapiens, UniProt P11712); assay: as above; format: in vitro ADME; details: 10 nM CYP2C9, 1 μM Vivid 2C9 Green, 60 minutes
CYP2C9, sequence (P11712 whole entry): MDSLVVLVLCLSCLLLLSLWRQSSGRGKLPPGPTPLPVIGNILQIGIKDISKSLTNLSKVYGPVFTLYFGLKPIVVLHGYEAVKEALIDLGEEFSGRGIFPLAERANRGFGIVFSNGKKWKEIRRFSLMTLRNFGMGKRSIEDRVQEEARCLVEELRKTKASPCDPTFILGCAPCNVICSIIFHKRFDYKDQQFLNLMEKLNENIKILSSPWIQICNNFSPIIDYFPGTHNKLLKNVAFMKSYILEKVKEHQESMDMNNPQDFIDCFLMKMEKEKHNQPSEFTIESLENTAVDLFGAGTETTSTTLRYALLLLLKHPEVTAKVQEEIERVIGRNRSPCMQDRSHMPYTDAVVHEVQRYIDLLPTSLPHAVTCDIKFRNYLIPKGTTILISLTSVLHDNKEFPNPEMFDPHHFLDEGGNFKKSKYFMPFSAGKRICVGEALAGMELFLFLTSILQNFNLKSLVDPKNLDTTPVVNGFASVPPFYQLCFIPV
Method: as §1

CYP1A2 = biological target: T1, CYP1A2 (Homo sapiens, UniProt P05177); assay: as above; format: in vitro ADME; details: 5 nM CYP1A2, 2 μM Vivid 1A2 Blue, 60 minutes
T1 sequence (P05177 1-516): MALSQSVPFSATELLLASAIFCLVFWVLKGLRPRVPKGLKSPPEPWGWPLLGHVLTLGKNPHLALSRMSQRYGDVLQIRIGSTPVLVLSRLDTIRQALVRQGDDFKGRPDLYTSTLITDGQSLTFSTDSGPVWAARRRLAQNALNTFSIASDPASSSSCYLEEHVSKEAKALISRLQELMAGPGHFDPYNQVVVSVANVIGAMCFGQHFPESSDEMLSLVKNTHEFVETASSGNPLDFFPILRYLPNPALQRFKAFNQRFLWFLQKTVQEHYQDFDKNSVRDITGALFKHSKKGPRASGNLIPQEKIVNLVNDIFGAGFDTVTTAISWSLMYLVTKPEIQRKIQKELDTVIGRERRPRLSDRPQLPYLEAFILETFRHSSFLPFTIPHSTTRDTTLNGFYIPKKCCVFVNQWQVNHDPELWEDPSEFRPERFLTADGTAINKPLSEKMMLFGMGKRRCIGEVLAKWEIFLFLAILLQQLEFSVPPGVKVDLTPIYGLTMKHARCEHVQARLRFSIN
Method: as §1

CYP2C19 = CYP2C19 (Homo sapiens, UniProt P33261); assay: as above; format: in vitro ADME; details: 5 nM CYP2C19, 10 μM Vivid 2C19 Blue, 60 minutes
CYP2C19, sequence (P33261 whole entry): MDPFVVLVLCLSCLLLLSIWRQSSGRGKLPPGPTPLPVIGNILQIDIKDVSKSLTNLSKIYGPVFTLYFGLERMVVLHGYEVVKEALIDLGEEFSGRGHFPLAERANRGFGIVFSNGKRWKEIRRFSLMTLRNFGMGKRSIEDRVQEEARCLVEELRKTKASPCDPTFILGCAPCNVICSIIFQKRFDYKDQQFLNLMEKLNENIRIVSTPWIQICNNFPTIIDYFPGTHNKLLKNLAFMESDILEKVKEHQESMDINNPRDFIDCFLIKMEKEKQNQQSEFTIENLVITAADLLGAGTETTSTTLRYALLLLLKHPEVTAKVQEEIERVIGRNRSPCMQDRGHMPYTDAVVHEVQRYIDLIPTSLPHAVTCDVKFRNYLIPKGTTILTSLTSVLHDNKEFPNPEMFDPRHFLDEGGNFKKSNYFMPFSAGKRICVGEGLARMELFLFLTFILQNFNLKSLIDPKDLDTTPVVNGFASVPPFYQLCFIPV
Method: as §1

CYP3A4 = CYP3A4 (Homo sapiens, UniProt P08684); assay: as above; format: in vitro ADME; details: 5 nM CYP3A4, 5 μM Vivid 3A4 Red, 60 minutes
CYP3A4, sequence (P08684 whole entry): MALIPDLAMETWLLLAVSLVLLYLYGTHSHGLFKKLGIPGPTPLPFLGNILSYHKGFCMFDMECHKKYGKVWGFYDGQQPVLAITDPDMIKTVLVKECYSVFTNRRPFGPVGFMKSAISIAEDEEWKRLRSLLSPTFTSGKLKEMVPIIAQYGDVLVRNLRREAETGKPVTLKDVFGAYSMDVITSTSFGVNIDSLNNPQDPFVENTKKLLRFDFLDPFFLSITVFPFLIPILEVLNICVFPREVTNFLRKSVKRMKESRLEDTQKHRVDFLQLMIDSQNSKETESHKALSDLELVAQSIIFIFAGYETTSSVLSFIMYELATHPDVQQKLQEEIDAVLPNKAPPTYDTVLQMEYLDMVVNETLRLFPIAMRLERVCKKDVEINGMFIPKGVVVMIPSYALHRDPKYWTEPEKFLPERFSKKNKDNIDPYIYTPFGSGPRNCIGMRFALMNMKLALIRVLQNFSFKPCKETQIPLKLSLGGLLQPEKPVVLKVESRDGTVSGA
Method: Selected compounds of the invention were assayed for their ability to inhibit various cytochrome P450 isozymes, such as, for example CYP2D6, CYP2C9, CYP1A2, CYP2C19, CYP3A4, CYP2C9, and CYP3A4 (human liver microsome). Such assays are described by Crespi et al., Anal. Biochem. 248:188-90, 1997; Ekins et al., J. Pharmacol. Exp. Ther. 290, 429-38, 1999; and Ekins et al., J. Pharmacol. Exp. Ther. 291, 424-33, 1999. […] The plate is centrifuged for 2 minutes at approximately 1000 rpm to shift the compound to the bottom of the well. […] Distilled water (800 nL) is added to the wells containing compound, the background control wells, and the positive control wells, followed by the addition of 200 nL of phosphate buffer (500 mM potassium phosphate butter at pH=8.4). The positive control cells contain a drug such as, for example, miconazole. Insect baculosomes (PanVera […]) in […] phosphate buffer was added to the background control wells and the plate was scanned for compound fluorescence. […] After incubation for 60 minutes, the wells were read with a fluorescent plate reader.

ROCK I (AA 6-553) = biological target: T2, ROCK I (AA 6-553) (Homo sapiens, UniProt Q13464); assay: ROCK inhibition assay, standard coupled enzyme system; format: biochemical; details: 45 nM ROCK I, 45 μM ATP, 200 μM peptide, 30° C.
T2 construct: ROCK I (AA 6-553)
T2 sequence (Q13464 6-553, species assumed): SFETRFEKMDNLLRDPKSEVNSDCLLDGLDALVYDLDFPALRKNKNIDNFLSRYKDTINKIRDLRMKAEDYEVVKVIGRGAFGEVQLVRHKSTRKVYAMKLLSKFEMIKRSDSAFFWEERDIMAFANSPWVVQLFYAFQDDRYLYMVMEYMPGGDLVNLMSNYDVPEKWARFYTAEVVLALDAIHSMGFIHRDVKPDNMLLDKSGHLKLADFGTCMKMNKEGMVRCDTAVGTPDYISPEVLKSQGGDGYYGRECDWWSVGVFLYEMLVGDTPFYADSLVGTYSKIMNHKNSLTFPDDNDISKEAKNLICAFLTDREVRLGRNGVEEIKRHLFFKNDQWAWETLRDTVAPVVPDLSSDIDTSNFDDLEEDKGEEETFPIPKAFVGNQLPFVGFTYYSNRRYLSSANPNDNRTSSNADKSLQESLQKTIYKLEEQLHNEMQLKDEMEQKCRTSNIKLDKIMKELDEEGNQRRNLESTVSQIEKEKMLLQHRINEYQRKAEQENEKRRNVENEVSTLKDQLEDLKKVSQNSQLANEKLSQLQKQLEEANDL
Method: Reactions were carried out in a solution containing 100 mM HEPES (pH 7.5), 10 mM MgCl2, 25 mM NaCl, 2 mM DTT and 1.5% DMSO.

[1] = biological target: T3, CYP3A4 (human liver microsome) (Homo sapiens, UniProt P08684); assay: Cytochrome P450 inhibition, human liver microsome; format: in vitro ADME; details: read-out: CYP3A4 (HLM) Ki
T3 construct: CYP3A4 (human liver microsome); from tissue; host or cells: human liver microsomes
T3 sequence (P08684 whole entry): as the sequence (P08684 whole entry) above
Method: Selected compounds of the invention were assayed for their ability to inhibit various cytochrome P450 isozymes, such as, for example CYP2D6, CYP2C9, CYP1A2, CYP2C19, CYP3A4, CYP2C9, and CYP3A4 (human liver microsome). Such assays are described by Crespi et al., Anal. Biochem. 248:188-90, 1997; Ekins et al., J. Pharmacol. Exp. Ther. 290, 429-38, 1999; and Ekins et al., J. Pharmacol. Exp. Ther. 291, 424-33, 1999. […] The plate is centrifuged for 2 minutes at approximately 1000 rpm to shift the compound to the bottom of the well. […] Distilled water (800 nL) is added to the wells containing compound, the background control wells, and the positive control wells, followed by the addition of 200 nL of phosphate buffer (500 mM potassium phosphate butter at pH=8.4). The positive control cells contain a drug such as, for example, miconazole. […] After incubation for 60 minutes, the wells were read with a fluorescent plate reader.

CYP2D6, sequence (P10635 whole entry): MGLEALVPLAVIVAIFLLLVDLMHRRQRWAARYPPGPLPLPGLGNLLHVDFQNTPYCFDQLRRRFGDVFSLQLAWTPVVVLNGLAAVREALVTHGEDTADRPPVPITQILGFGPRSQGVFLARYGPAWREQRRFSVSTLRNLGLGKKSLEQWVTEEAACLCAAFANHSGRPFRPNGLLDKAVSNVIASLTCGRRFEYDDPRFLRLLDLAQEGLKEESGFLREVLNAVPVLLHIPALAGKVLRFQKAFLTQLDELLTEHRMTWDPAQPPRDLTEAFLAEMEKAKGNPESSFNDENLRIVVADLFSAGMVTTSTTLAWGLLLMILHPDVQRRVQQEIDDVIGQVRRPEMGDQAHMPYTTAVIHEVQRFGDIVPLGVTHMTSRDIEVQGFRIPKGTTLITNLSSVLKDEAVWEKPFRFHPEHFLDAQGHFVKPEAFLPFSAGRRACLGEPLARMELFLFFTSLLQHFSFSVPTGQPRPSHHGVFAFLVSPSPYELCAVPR

| Structure (SMILES) | Ki (CYP2D6) | Ki (CYP2C9) | Ki (CYP1A2) | Ki (CYP2C19) | Ki (CYP3A4) | Ki (ROCK I (AA 6-553)) | Ki [1] |
| --- | --- | --- | --- | --- | --- | --- | --- |
| COc1cccc(CC(=O)Nc2cc(-c3ccnc(F)c3)cs2)c1 [Compound 61] | > 10 µM | 1 to 10 µM | > 10 µM | 1 to 10 µM |  |  |  |
| COc1cccc(CC(=O)Nc2cc(-c3ccnc(Cl)c3)cs2)c1 [Compound 62] |  | 1 to 10 µM | > 10 µM |  |  |  |  |
| COc1cccc(CC(=O)Nc2cc(-c3ccnc(N)c3)cs2)c1 [Compound 64, N-(4-(2-aminopyridin-4-yl)thiophen-2-yl)-2-(3-methoxyphenyl)acetamide] | 1 to 10 µM | 1 to 10 µM | 1 to 10 µM | > 10 µM |  |  |  |
| O=C(Cc1cccc(OCCCC2CCNCC2)c1)Nc1cc(-c2ccnc(F)c2)cs1 [Compound 72] | 1 to 10 µM |  | > 10 µM | 1 to 10 µM | 1 to 10 µM | < 0.1 µM | > 10 µM |
| CN1CCN(CCOc2cccc(CC(=O)Nc3cc(-c4ccnc(F)c4)cs3)c2)CC1 [Compound 73] | > 10 µM | > 10 µM | > 10 µM |  | > 10 µM | < 0.1 µM | > 10 µM |
| CN1CCN(CCCOc2cccc(CC(=O)Nc3cc(-c4ccnc(F)c4)cs3)c2)CC1 [Compound 74] | > 10 µM | > 10 µM | > 10 µM | > 10 µM | > 10 µM | < 0.1 µM | > 10 µM |
| Nc1cc(-c2csc(NC(=O)Cc3cccc(OCCCC4CCNCC4)c3)c2)ccn1 [Compound 77] | < 1 µM | 1 to 10 µM | > 10 µM | 1 to 10 µM | 1 to 10 µM | < 0.1 µM | 1 to 10 µM |
| COc1cccc(CC(=O)Nc2cc(-c3ccnc(C)c3)cs2)c1 [Compound 80] | > 10 µM | 1 to 10 µM | > 10 µM | 1 to 10 µM | 1 to 10 µM | 0.1 to 1 µM | 1 to 10 µM |
| Cc1cc(-c2csc(NC(=O)Cc3cccc(O)c3)c2)ccn1 [Compound 85] | > 10 µM | > 10 µM | > 10 µM | 1 to 10 µM | > 10 µM | < 0.1 µM | > 10 µM |
| Cc1cc(-c2csc(NC(=O)Cc3cccc(OCCCN4CCNCC4)c3)c2)ccn1 [Compound 89] |  | > 10 µM | > 10 µM | 1 to 10 µM | > 10 µM | < 0.1 µM | > 10 µM |
| Cc1cc(-c2csc(NC(=O)Cc3cccc(OCCCN4CCN(C)CC4)c3)c2)ccn1 [Compound 90] |  | > 10 µM | > 10 µM |  | > 10 µM | 0.1 to 1 µM | > 10 µM |
| Cc1cc(-c2csc(NC(=O)Cc3cccc(OCCN4CCNCC4)c3)c2)ccn1 [Compound 92] |  | > 10 µM | > 10 µM | > 10 µM | > 10 µM | 0.1 to 1 µM | > 10 µM |
| Cc1cc(-c2csc(NC(=O)Cc3cccc(OCCN4CCN(C)CC4)c3)c2)ccn1 [Compound 93] |  | > 10 µM | > 10 µM | > 10 µM | > 10 µM | 0.1 to 1 µM | > 10 µM |
| Cc1cc(-c2csc(NC(=O)Cc3cccc(OCCN4CCCCC4)c3)c2)ccn1 [Compound 94] |  | > 10 µM | > 10 µM | > 10 µM | > 10 µM | > 1 µM | > 10 µM |
| O=C(Cc1cccc(O)c1)Nc1cc(-c2ccnc(Cl)c2)cs1 [Compound 101] |  | 1 to 10 µM | 1 to 10 µM | 1 to 10 µM | 1 to 10 µM | < 0.1 µM | 1 to 10 µM |
| O=C(Cc1cccc(OCCCN2CCNCC2)c1)Nc1cc(-c2ccnc(Cl)c2)cs1 [Compound 102] | > 10 µM | > 10 µM | > 10 µM | 1 to 10 µM | 1 to 10 µM | < 0.1 µM | > 10 µM |
| CN1CCN(CCCOc2cccc(CC(=O)Nc3cc(-c4ccnc(Cl)c4)cs3)c2)CC1 [Compound 103] | > 10 µM | > 10 µM | > 10 µM | > 10 µM | > 10 µM | < 0.1 µM | > 10 µM |
| O=C(Cc1cc2c(cc1Cl)OCO2)Nc1cc(-c2ccnc(Cl)c2)cs1 [Compound 105] | < 1 µM | 1 to 10 µM | 1 to 10 µM | < 1 µM | 1 to 10 µM | < 0.1 µM | 1 to 10 µM |
